Our source for the IC50 values is ChEMBL document CHEMBL1156962, “Evaluation of retro-inverso modifications of HTLV-1 protease inhibitors containing a hydroxyethylamine isoster” (Bioorg Med Chem, 2010).

Structures are written as SMILES.

This assay can be described thus: Inhibition of HTLV1 protease assessed as decrease in substrate concentration by HPLC analysis. On the set-up: species or system Human T-cell leukemia virus type I.
The term IC50 denotes the concentration that gives 50% inhibition. For the molecule `CC[C@@H](C)[C@@H](NC(=O)[C@H](CC(C)C)[C@H](O)C[C@H]1CCCN1C(=O)NCc1ccccc1)C(=O)N[C@@H](C(=O)N1CCC[C@@H]1C(=O)N1CCC[C@@H]1C(N)=O)C(C)C`, the IC50 came to 350 µM. `CC[C@H](C)[C@@H](NC[C@H](O)[C@@H](CC(C)C)NC(=O)[C@H]1CCCN1C(C)=O)C(=O)N[C@@H](C(=O)N1CCC[C@@H]1C(N)=O)C(C)C`: the 50% inhibitory concentration (IC50) is more than 10000 µM. In the case of `CC[C@@H](C)[C@@H](NC(=O)[C@H](CC(C)C)[C@@H](O)C[C@H]1CCCN1C(=O)NCc1ccccc1)C(=O)N[C@@H](C(=O)N1CCC[C@@H]1C(=O)N1CCC[C@@H]1C(N)=O)C(C)C` it was 1500 µM; in that of `CC[C@@H](C)[C@@H](NC(=O)[C@@H](CC(C)C)[C@H](O)C[C@H]1CCCN1C(=O)NCc1ccccc1)C(=O)N[C@@H](C(=O)N1CCC[C@@H]1C(=O)N1CCC[C@@H]1C(N)=O)C(C)C`, 160 µM; in that of `CC[C@H](C)[C@@H](NC[C@H](O)[C@@H](CC(C)C)NC(C)=O)C(=O)N[C@@H](C(=O)N1CCC[C@@H]1C(N)=O)C(C)C`, more than 10000 µM. Turning to `CC[C@@H](C)[C@@H](NC(=O)[C@@H](CC(C)C)[C@@H](O)C[C@H]1CCCN1C(=O)NCc1ccccc1)C(=O)N[C@@H](C(=O)N1CCC[C@@H]1C(=O)N1CCC[C@@H]1C(N)=O)C(C)C`, the IC50 came out at 550 µM.
